Test system: 843126-344-R-J1-PDC complex spheroid viability
Assay: Anticancer human tumor 843126-344-R-J1-PDC patient-derived melanoma cell line growth inhibition [POLQ]
Settings: for IC50: curve of first compound; for viability, T/C: stronger effect = lower value
Summary of the method: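 PDC + HUVEC + MSC complex spheroids; POLQ inhibitors ± partner drugs; top conc. at/near clinical Cmax, else 10 microM (SN-38 1 microM), half-log dilutions; 37 degrees C, 5% CO2.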

[1] = second compound 0.0316 µM, first compound 0.0316 µM
[2] = second compound 0.0316 µM, first compound 0.1 µM
[3] = second compound 0.0316 µM, first compound 0.316 µM
[4] = second compound 0.0316 µM, first compound 1 µM
[5] = second compound 0.0316 µM, first compound 3.16 µM
[6] = second compound 0.0316 µM, first compound 10 µM
[7] = second compound 0.1 µM, first compound 0.0316 µM
[8] = second compound 0.1 µM, first compound 0.1 µM
[9] = second compound 0.1 µM, first compound 0.316 µM
[10] = second compound 0.1 µM, first compound 1 µM
[11] = second compound 0.1 µM, first compound 3.16 µM
[12] = second compound 0.1 µM, first compound 10 µM
[13] = second compound 0.316 µM, first compound 0.0316 µM
[14] = second compound 0.316 µM, first compound 0.1 µM
[15] = second compound 0.316 µM, first compound 0.316 µM
[16] = second compound 0.316 µM, first compound 1 µM
[17] = second compound 0.316 µM, first compound 3.16 µM
[18] = second compound 0.316 µM, first compound 10 µM
[19] = second compound 1 µM, first compound 0.0316 µM
[20] = second compound 1 µM, first compound 0.1 µM
[21] = second compound 1 µM, first compound 0.316 µM
[22] = second compound 1 µM, first compound 1 µM
[23] = second compound 1 µM, first compound 3.16 µM
[24] = second compound 1 µM, first compound 10 µM
[25] = second compound 3.16 µM, first compound 0.0316 µM
[26] = second compound 3.16 µM, first compound 0.1 µM
[27] = second compound 3.16 µM, first compound 0.316 µM
[28] = second compound 3.16 µM, first compound 1 µM
[29] = second compound 3.16 µM, first compound 3.16 µM
[30] = second compound 3.16 µM, first compound 10 µM
[31] = second compound 10 µM, first compound 0.0316 µM
[32] = second compound 10 µM, first compound 0.1 µM
[33] = second compound 10 µM, first compound 0.316 µM
[34] = second compound 10 µM, first compound 1 µM
[35] = second compound 10 µM, first compound 3.16 µM
[36] = second compound 10 µM, first compound 10 µM
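Throughout, for viability, T/C: spheroids exposed to drugs for seven days before readout.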

COc1cc(C2c3cc4c(cc3C(OC3OC5COC(C)OC5C(O)C3O)C3COC(=O)C23)OCO4)cc(OC)c1O (stereo not drawn) + COC1C(OC(N)=O)C(O)C(Oc2ccc3c(O)c(NC(=O)c4ccc(O)c(CC=C(C)C)c4)c(=O)oc3c2C)OC1(C)C
IC50 (second compound 0.0316 µM): > 10 µM | IC50 (second compound 0.1 µM): > 10 µM | IC50 (second compound 0.316 µM): > 10 µM | IC50 (second compound 1 µM): 9.06 µM | IC50 (second compound 3.16 µM): > 10 µM | IC50 (second compound 10 µM): 7.76 µM | viability, T/C [1]: 86% | viability, T/C [2]: 89.4% | viability, T/C [3]: 95.3% | viability, T/C [4]: 79.8% | viability, T/C [5]: 57% | viability, T/C [6]: 50.8% | viability, T/C [7]: 102% | viability, T/C [8]: 91.3% | viability, T/C [9]: 88.2% | viability, T/C [10]: 86% | viability, T/C [11]: 60% | viability, T/C [12]: 54.5% | viability, T/C [13]: 98% | viability, T/C [14]: 89.3% | viability, T/C [15]: 97.5% | viability, T/C [16]: 83.6% | viability, T/C [17]: 60.7% | viability, T/C [18]: 52.1% | viability, T/C [19]: 81.8% | viability, T/C [20]: 82.6% | viability, T/C [21]: 97% | viability, T/C [22]: 82.1% | viability, T/C [23]: 78.9% | viability, T/C [24]: 47.3% | viability, T/C [25]: 85.8% | viability, T/C [26]: 93.6% | viability, T/C [27]: 89.5% | viability, T/C [28]: 91% | viability, T/C [29]: 64.4% | viability, T/C [30]: 57.8% | viability, T/C [31]: 114% | viability, T/C [32]: 96.3% | viability, T/C [33]: 91.8% | viability, T/C [34]: 85.1% | viability, T/C [35]: 58.5% | viability, T/C [36]: 47.2%

C=CC(=O)N1CCN(c2nc(=O)n(-c3c(C)ccnc3C(C)C)c3nc(-c4c(O)cccc4F)c(F)cc23)C(C)C1 (stereo not drawn) + Cc1cccc(N(C)C(=O)C2C(O)CCN2c2nc(C)cc(C(F)(F)F)c2C#N)c1
IC50 (second compound 0.0316 µM): > 10 µM | IC50 (second compound 0.1 µM): > 10 µM | IC50 (second compound 0.316 µM): > 10 µM | IC50 (second compound 1 µM): > 10 µM | IC50 (second compound 3.16 µM): > 10 µM | IC50 (second compound 10 µM): > 10 µM | viability, T/C [1]: 87.6% | viability, T/C [2]: 95.2% | viability, T/C [3]: 122% | viability, T/C [4]: 94.6% | viability, T/C [5]: 89.6% | viability, T/C [6]: 78.6% | viability, T/C [7]: 81.8% | viability, T/C [8]: 81.3% | viability, T/C [9]: 94.7% | viability, T/C [10]: 97% | viability, T/C [11]: 80.7% | viability, T/C [12]: 80.7% | viability, T/C [13]: 81.3% | viability, T/C [14]: 85.6% | viability, T/C [15]: 91.1% | viability, T/C [16]: 107% | viability, T/C [17]: 84% | viability, T/C [18]: 69.9% | viability, T/C [19]: 89.7% | viability, T/C [20]: 84.7% | viability, T/C [21]: 84.2% | viability, T/C [22]: 90.2% | viability, T/C [23]: 106% | viability, T/C [24]: 71.3% | viability, T/C [25]: 91.2% | viability, T/C [26]: 74.5% | viability, T/C [27]: 104% | viability, T/C [28]: 91.5% | viability, T/C [29]: 120% | viability, T/C [30]: 66.8% | viability, T/C [31]: 77.1% | viability, T/C [32]: 81% | viability, T/C [33]: 89.2% | viability, T/C [34]: 89.5% | viability, T/C [35]: 83.5% | viability, T/C [36]: 70.1%

CCc1c2c(nc3ccc(O)cc13)-c1cc3c(c(=O)n1C2)COC(=O)[C@]3(O)CC + Cc1cccc(N(C)C(=O)C2C(O)CCN2c2nc(C)cc(C(F)(F)F)c2C#N)c1
IC50 (second compound 0.0316 µM): 0.991 µM | IC50 (second compound 0.1 µM): 0.749 µM | IC50 (second compound 0.316 µM): 0.4 µM | IC50 (second compound 1 µM): > 1 µM | IC50 (second compound 3.16 µM): > 1 µM | IC50 (second compound 10 µM): > 1 µM | viability, T/C (second compound 0.0316 µM, first compound 0.00316 µM): 73% | viability, T/C (second compound 0.0316 µM, first compound 0.01 µM): 52.8% | viability, T/C [1]: 66.4% | viability, T/C [2]: 67.3% | viability, T/C [3]: 54.6% | viability, T/C [4]: 50.5% | viability, T/C (second compound 0.1 µM, first compound 0.00316 µM): 72.8% | viability, T/C (second compound 0.1 µM, first compound 0.01 µM): 52.8% | viability, T/C [7]: 60.6% | viability, T/C [8]: 58.8% | viability, T/C [9]: 60.8% | viability, T/C [10]: 42.8% | viability, T/C (second compound 0.316 µM, first compound 0.00316 µM): 70.5% | viability, T/C (second compound 0.316 µM, first compound 0.01 µM): 61.6% | viability, T/C [13]: 58.3% | viability, T/C [14]: 58.6% | viability, T/C [15]: 53.6% | viability, T/C [16]: 43.6% | viability, T/C (second compound 1 µM, first compound 0.00316 µM): 66.6% | viability, T/C (second compound 1 µM, first compound 0.01 µM): 58.5% | viability, T/C [19]: 55.1% | viability, T/C [20]: 60.9% | viability, T/C [21]: 59.6% | viability, T/C [22]: 44.6% | viability, T/C (second compound 3.16 µM, first compound 0.00316 µM): 67.5% | viability, T/C (second compound 3.16 µM, first compound 0.01 µM): 60.9% | viability, T/C [25]: 50.3% | viability, T/C [26]: 67.7% | viability, T/C [27]: 66.1% | viability, T/C [28]: 45.7% | viability, T/C (second compound 10 µM, first compound 0.00316 µM): 64.8% | viability, T/C (second compound 10 µM, first compound 0.01 µM): 68.3% | viability, T/C [31]: 67% | viability, T/C [32]: 66.2% | viability, T/C [33]: 58.6% | viability, T/C [34]: 47.8%

CC1COCCN1c1cc(C2(S(C)(=N)=O)CC2)nc(-c2ccnc3[nH]ccc23)n1 (stereo not drawn) + COC1C(OC(N)=O)C(O)C(Oc2ccc3c(O)c(NC(=O)c4ccc(O)c(CC=C(C)C)c4)c(=O)oc3c2C)OC1(C)C
IC50 (second compound 0.0316 µM): > 10 µM | IC50 (second compound 0.1 µM): > 10 µM | IC50 (second compound 0.316 µM): > 10 µM | IC50 (second compound 1 µM): 8.62 µM | IC50 (second compound 3.16 µM): 9.28 µM | IC50 (second compound 10 µM): 9.69 µM | viability, T/C [1]: 99% | viability, T/C [2]: 98% | viability, T/C [3]: 110% | viability, T/C [4]: 99.6% | viability, T/C [5]: 59.2% | viability, T/C [6]: 55.9% | viability, T/C [7]: 90.9% | viability, T/C [8]: 80.3% | viability, T/C [9]: 97.6% | viability, T/C [10]: 80.6% | viability, T/C [11]: 65.7% | viability, T/C [12]: 55.3% | viability, T/C [13]: 103% | viability, T/C [14]: 79.8% | viability, T/C [15]: 81.2% | viability, T/C [16]: 89% | viability, T/C [17]: 56.9% | viability, T/C [18]: 53.5% | viability, T/C [19]: 84.6% | viability, T/C [20]: 88.3% | viability, T/C [21]: 78.5% | viability, T/C [22]: 96.3% | viability, T/C [23]: 69.2% | viability, T/C [24]: 47.1% | viability, T/C [25]: 87.1% | viability, T/C [26]: 89.1% | viability, T/C [27]: 89% | viability, T/C [28]: 79.5% | viability, T/C [29]: 74% | viability, T/C [30]: 48% | viability, T/C [31]: 94.8% | viability, T/C [32]: 101% | viability, T/C [33]: 74.1% | viability, T/C [34]: 89.7% | viability, T/C [35]: 69.3% | viability, T/C [36]: 48.7%

Reference: PubChem BioAssay AID1963837 (Molecular Pharmacology Branch, DTP, NCI, 2024)
